These are literature values, as cited in patent US20160331734A1, “SUBSTITUTED N-ARYL PYRIDINONES” (AUSPEX PHARMACEUTICALS, INC., priority 2014, published 2016).

Series [1] has as its system myometrial cells.
Series [2] has as its system leiomyoma cells.
The conditions of series [3]: humans.

As to `Cc1ccc(=O)n(-c2ccccc2)c1` [Pirfenidone, 5-Methyl-1-phenylpyridin-2(1H)-one], the DNA synthesis result in series [1] and in series [2] was “inhibits DNA synthesis” in each case. In series [3], the half-life result is recorded as “very short”.
